Reference: publication PMC9467556, “Identification of novel pyrrolopyrimidine and pyrrolopyridine derivatives as potent ENPP1 inhibitors” (Journal of Enzyme Inhibition and Medicinal Chemistry, 2022)
Where a name gives a salt, the structure may show the parent alone.

Target: T1, human recombinant ENPP1 (Homo sapiens, UniProt P22413)
T1 construct: purchased R&D systems
T1 sequence (P22413 1-925): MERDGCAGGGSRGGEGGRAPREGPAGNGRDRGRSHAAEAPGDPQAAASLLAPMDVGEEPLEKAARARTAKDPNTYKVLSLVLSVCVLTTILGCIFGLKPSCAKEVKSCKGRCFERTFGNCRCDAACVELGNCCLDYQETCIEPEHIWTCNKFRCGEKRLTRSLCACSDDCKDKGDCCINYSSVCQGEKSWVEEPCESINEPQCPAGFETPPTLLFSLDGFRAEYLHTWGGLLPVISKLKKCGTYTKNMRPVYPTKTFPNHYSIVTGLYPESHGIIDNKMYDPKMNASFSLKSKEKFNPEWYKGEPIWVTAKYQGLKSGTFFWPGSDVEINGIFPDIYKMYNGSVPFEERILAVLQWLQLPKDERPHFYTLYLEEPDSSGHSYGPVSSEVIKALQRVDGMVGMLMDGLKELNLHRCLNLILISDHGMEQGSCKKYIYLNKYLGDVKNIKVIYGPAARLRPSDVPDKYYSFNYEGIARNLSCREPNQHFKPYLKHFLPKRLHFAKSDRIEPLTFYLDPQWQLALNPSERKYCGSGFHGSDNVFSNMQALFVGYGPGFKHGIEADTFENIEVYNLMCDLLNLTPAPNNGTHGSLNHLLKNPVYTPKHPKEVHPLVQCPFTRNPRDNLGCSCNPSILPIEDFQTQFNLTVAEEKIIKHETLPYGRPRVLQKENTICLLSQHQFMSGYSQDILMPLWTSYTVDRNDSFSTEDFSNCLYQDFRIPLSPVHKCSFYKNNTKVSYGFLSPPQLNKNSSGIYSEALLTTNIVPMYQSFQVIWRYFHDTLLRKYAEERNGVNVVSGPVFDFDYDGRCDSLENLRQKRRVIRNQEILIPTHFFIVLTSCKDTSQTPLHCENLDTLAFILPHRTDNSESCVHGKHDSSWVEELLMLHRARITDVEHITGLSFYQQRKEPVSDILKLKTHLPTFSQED
Experiment: in vitro recombinant human ENPP1 enzymatic assay (AMP-Glo, cGAMP substrate)
Type: biochemical
Conditions: for % inhibition: ENPP1, test concentration not given; for IC50: average ± SD from two or three independent repeats
From the text: ENPP1 hydrolyses nucleotides or nucleotide derivatives and produces nucleoside-5′-monophosphates and pyrophosphates. ENPP1 also hydrolyses 2′3′-cGAMP and produces 5′-adenosine monophosphate (AMP) and 5′ guanosine monophosphate (GMP). The produced AMP from the reaction is detected using the AMP-Glo® kit (Promega). The assay kit consists of two reagents; one to terminate the AMP-generating enzymatic reaction, remove ATP and convert AMP produced into ADP, and a second reagent to convert ADP to ATP, which is used to generate a luminescence in a luciferase reaction. The amount of light measured is proportional to the amount of AMP produced by ENPP1.
The final assay reaction mixture contains a buffer of 50 mM Tris (pH 8.5), 250 mM NaCl, 0.5 mM CaCl2, 1 μM ZnCl2, 5% glycerol and 1% DMSO. Serially diluted ENPP1 inhibitors (usually range from 10 μM to 0.5 nM) are pre-incubated with human recombinant ENPP1 enzyme (R&D systems) at 3 ng/reaction for 5–10 min at room temperature (RT). The reaction is initiated by adding cGAMP (at final concentration of 5 μM) and incubating for 90 min at 37 °C. At the end of incubation, the reaction is stopped by adding 10 μL of AMP-Glo reagent I and followed by incubation at RT for one hour. After incubation, 20 μL of AMP detection solution (mixture of AMP-Glo II reagent and Kinase-Glo one at 1:100 ratio) is added and incubated at RT for one hour. The luminescence signal generated is measured using the ClarioStar plate reader (BMG Labtech). Maximal activity control (containing enzyme and substrate in presence of 1% DMSO only; MAX) and background control (containing substrate and 1% DMSO; MIN) are evaluated simultaneously. In each experiment, serially diluted reference ENPP1 inhibitor is tested together. The IC50 values for % remaining activity versus compound concentration are determined by fitting the inhibition curves using a three-parameter variable method in GraphPad Prism® software. Triplicate wells are run at each inhibitor concentration and averaged IC50 value for each compound is calculated.

SMILES	% inhibition (Table 1)	IC50 (Table 1)	% inhibition (Table 2)	IC50 (Table 2)
Cc1ccc(S(=O)(=O)NCC2CCN(c3ncnc4[nH]ccc34)CC2)cc1.Cl [20b, N-((1-(7H-Pyrrolo[2,3-d]pyrimidin-4-yl)piperidin-4-yl)methyl)-4-methylbenzenesulfonamide hydrochloride]	62%	–	–	–
CC(C)n1ccc2c(N3CCC(CNS(N)(=O)=O)CC3)ncnc21 [18e, N-((1–(7-Isopropyl-7H-pyrrolo[2,3-d]pyrimidin-4-yl)piperidin-4-yl)methyl)methanesulfamide hydrochloride]	75%	20.66 ± 0.00502 µM	–	–
NS(=O)(=O)NCC1CCN(c2ncnc3c2ccn3-c2cccnc2)CC1 [18l, N-((1-(7-(Pyridin-3-yl)-7H-pyrrolo[2,3-d]pyrimidin-4-yl)piperidin-4-yl)methyl)methanesulfamide hydrochloride]	71%	1.853 ± 0.00116 µM	–	–
NS(=O)(=O)NC1CCN(c2ncnc3[nH]ccc23)CC1 [18q, N-(1-(7H-Pyrrolo[2,3-d]pyrimidin-4-yl)piperidin-4-yl)methanesulfamide hydrochloride]	71%	3.323 ± 0.000298 µM	–	–
CC(NS(N)(=O)=O)C1CCN(c2ncnc3[nH]ccc23)CC1 (stereo not drawn) [18o, N-(1–(1-(7H-Pyrrolo[2,3-d]pyrimidin-4-yl)piperidin-4-yl)ethyl)methanesulfamide hydrochloride]	99%	0.25 ± 2.8e-05 µM	–	–
NS(=O)(=O)NCCC1CCN(c2ncnc3[nH]ccc23)CC1 [18a, N-(2–(1-(7H-Pyrrolo[2,3-d]pyrimidin-4-yl)piperidin-4-yl)ethyl)methanesulfamide hydrochloride]	99%	–	–	–
NS(=O)(=O)NCC1CCN(c2ncnc3c2ccn3-c2ccccc2)CC1 [18g, N-((1–(7-Phenyl-7H-pyrrolo[2,3-d]pyrimidin-4-yl)piperidin-4-yl)methyl)methanesulfamide hydrochloride hydrochloride]	99%	0.298 ± 4.1e-05 µM	–	–
NS(=O)(=O)NCc1ccc(-c2ncnc3[nH]ccc23)cc1 [25d, N-(4-(7H-Pyrrolo[2,3-d]pyrimidin-4-yl)benzyl)methanesulfamide hydrochloride]	–	–	76%	7.597 ± 0.00127 µM
NS(=O)(=O)NCc1cccc(-c2ncnc3[nH]ccc23)c1 [25g, N-(3-(7H-Pyrrolo[2,3-d]pyrimidin-4-yl)benzyl)methanesulfamide hydrochloride]	–	–	53%	4.769 ± 0.000455 µM
NS(=O)(=O)NCC1CCN(c2ncnc3c2ccn3-c2ccoc2)CC1 [18k, N-((1–(7-(Furan-3-yl)-7H-pyrrolo[2,3-d]pyrimidin-4-yl)piperidin-4-yl)methyl)methanesulfamide hydrochloride]	100%	0.0541 ± 1e-06 µM	–	–
NS(=O)(=O)NCC1CCN(c2ncnc3c2ccn3C2CC2)CC1 [18f, N-((1–(7-Cyclopropyl-7H-pyrrolo[2,3-d]pyrimidin-4-yl)piperidin-4-yl)methyl)methanesulfamide hydrochloride hydrochloride]	100%	0.074 ± 5.2e-05 µM	–	–
NS(=O)(=O)NCC1CCN(c2ncnc3c2ccn3Cc2ccccc2)CC1 [18j, N-((1–(7-Benzyl-7H-pyrrolo[2,3-d]pyrimidin-4-yl)piperidin-4-yl)methyl)methanesulfamide hydrochloride]	17%	–	–	–
Cl.O=S(=O)(NCC1CCN(c2ncnc3[nH]ccc23)CC1)c1cccs1 [20a, N-((1-(7H-Pyrrolo[2,3-d]pyrimidin-4-yl)piperidin-4-yl)methyl)thiophene-2-sulfonamide hydrochloride]	37%	–	–	–
Cl.O=S(=O)(NCC1CCN(c2ncnc3[nH]ccc23)CC1)C1CC1 [20c, N-((1-(7H-Pyrrolo[2,3-d]pyrimidin-4-yl)piperidin-4-yl)methyl)cyclopropanesulfonamide hydrochloride]	22%	–	–	–
Cc1c[nH]c2ncnc(N3CCC(CNS(N)(=O)=O)CC3)c12 [18m, N-((1–(5-Methyl-7H-pyrrolo[2,3-d]pyrimidin-4-yl)piperidin-4-yl)methyl)methanesulfamide hydrochloride]	94%	0.462 ± 0.00017 µM	–	–
Cc1cc2c(N3CCC(CNS(N)(=O)=O)CC3)ncnc2[nH]1 [18n, N-((1–(6-Methyl-7H-pyrrolo[2,3-d]pyrimidin-4-yl)piperidin-4-yl)methyl)methanesulfamide hydrochloride]	99%	0.218 ± 1.9e-05 µM	–	–
Cn1ccc2c(-c3ccc(CNS(N)(=O)=O)cc3)ncnc21 [25e, N-(4-(7-Methyl-7H-pyrrolo[2,3-d]pyrimidin-4-yl)benzyl)methanesulfamide hydrochloride]	–	–	72%	–
NS(=O)(=O)Nc1ccc(-c2ncnc3[nH]ccc23)cc1 [25a]	–	–	0%	–
NS(=O)(=O)NCC1CCN(c2ncnc3c2ccn3-c2ccc(F)cc2)CC1 [18h, N-((1–(7-(4-Fluorophenyl)-7H-pyrrolo[2,3-d]pyrimidin-4-yl)piperidin-4-yl)methyl)methanesulfamide hydrochloride]	54%	–	–	–
CSc1nc(N2CCC(CCNS(N)(=O)=O)CC2)c2cc[nH]c2n1 [18b]	34%	21.61 ± 0.00216 µM	–	–
NS(=O)(=O)NCc1ccc(-c2ncnc3[nH]ccc23)cc1F [25c, N-(2-Fluoro-4-(7H-pyrrolo[2,3-d]pyrimidin-4-yl)benzyl)methanesulfamide hydrochloride]	–	–	73%	–
NS(=O)(=O)Nc1ccc(-c2ccnc3[nH]ccc23)cc1 [25b, N-(4-(1H-Pyrrolo[2,3-b]pyridin-4-yl)phenyl)methanesulfamide hydrochloride]	–	–	33%	–
CC(NS(N)(=O)=O)c1ccc(-c2ncnc3[nH]ccc23)cc1 (stereo not drawn) [25j, N-(1–(4-(7H-Pyrrolo[2,3-d]pyrimidin-4-yl)phenyl)ethyl)methanesulfamide hydrochloride]	–	–	100%	–
CC(C)(NS(N)(=O)=O)c1ccc(-c2ncnc3[nH]ccc23)cc1 [25h, N-(2–(4-(7H-Pyrrolo[2,3-d]pyrimidin-4-yl)phenyl)propan-2-yl)methanesulfamide hydrochloride]	–	–	98%	1.466 ± 4.4e-05 µM
COc1ccc(-n2ccc3c(N4CCC(CNS(N)(=O)=O)CC4)ncnc32)cc1 [18i, N-((1–(7-(4-Methoxyphenyl)-7H-pyrrolo[2,3-d]pyrimidin-4-yl)piperidin-4-yl)methyl)methanesulfamide hydrochloride]	37%	–	–	–
NS(=O)(=O)NCC1CCN(c2ncnc3[nH]ccc23)CC1 [18c, N-((1–(7H-Pyrrolo[2,3-d]pyrimidin-4-yl)piperidin-4-yl)methyl)methanesulfamide hydrochloride]	100%	0.019 ± 1.6e-05 µM	–	–
Cn1ccc2c(N3CCC(CNS(N)(=O)=O)CC3)ncnc21 [18d, N-((1–(7-Methyl-7H-pyrrolo[2,3-d]pyrimidin-4-yl)piperidin-4-yl)methyl)methanesulfamide hydrochloride]	100%	0.0514 ± 2e-06 µM	–	–
